Results taken from patent publication US9738634B2, “Heterocyclic amide compound and herbicide” (SYNGENTA PARTICIPATIONS AG, priority 2013, dated 2017).

Tests used:
Assay type in all cases: in vivo
[1] = system: oval-leafed pondweed; assay: Test Example 1: weedkilling efficacy, preemergent weed treatment in the submerged state; C: oval-leafed pondweed
How it was run: (§1)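 Emulsion diluted with water to the specified per-hectare dosage is applied onto flood water (4 cm) over alluvial soil on the sowing day, with barnyard grass, bulrush and pondweed seeded and rice (2.5-leaf) transplanted; plants grow at 25–30 °C and are rated at 3 weeks.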

[2] = system: bulrush; assay: Test Example 2: weedkilling efficacy, growth period weed treatment in the submerged state; B: bulrush
How it was run: (§2)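 First, alluvial soil in pots is flooded to 4 cm and mixed seed is sown. Next, plants grow in a greenhouse at 25 to 30° C until the 1-2 leaf stage. Then diluted emulsion is applied onto the water surface at the given g/ha rate, and injury is assessed after 3 weeks.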

[3] = system: crabgrass; assay: Test Example 3: weedkilling efficacy through soil treatment; D: crabgrass; conditions: soil treatment, treatment dosage 315 g/ha
Source text: (§3) Weedkilling Efficacy Test Through Soil Treatment
(§4) Sterilized diluvial soil was introduced into 21 cm long, 13 cm wide, 7 cm deep plastic boxes, and seeds of crabgrass, green foxtail, barnyard grass, wild oat, black-grass, Italian ryegrass, common wind-grass, Indian mallow, redroot pigweed, fig-leafed goosefoot, chickweed, catchweed, birds-eye speedwell, corn, soybean, rice, wheat, beet and rapeseed were each spot-sown, and covered with about 1.5 cm of soil. Next, emulsions of compounds of the present invention prepared according to compounding example 2 were diluted with water to give the specified dosages, and applied uniformly onto the soil surface with a small sprayer. The plants were grown by placing the plastic boxes in a greenhouse at 25 to 30° C., and 3 weeks after the pesticide treatment the effect on each type of plant was investigated on the basis of the assessment criteria of test example 1.
(§5) A: barnyard grass, B: bulrush, C: oval-leafed pondweed, D: crabgrass, E: green foxtail, F: barnyard grass, G: wild oat, H: black-grass, I: Italian ryegrass, J: common wind-grass, K: Indian mallow, L: redroot pigweed, M: fig-leafed goosefoot, N: chickweed, O: catchweed, p: birds-eye speedwell, a: transplanted rice, b: directly sown rice, c: corn, d: soybean, e: wheat, f: beet, g: rapeseed
(§6) Further, pesticide dosage (g/ha) indicates the concentration regulated such that treatment was with only the stated number of grams (g), when calculated per hectare (ha).

[4] = system: black-grass; assay: Test Example 3: weedkilling efficacy through soil treatment; H: black-grass; conditions: soil treatment, treatment dosage 315 g/ha
Source text: as §3, §4, §5, §6

[5] = system: Indian mallow; assay: Test Example 3: weedkilling efficacy through soil treatment; K: Indian mallow; conditions: soil treatment, treatment dosage 315 g/ha
Source text: as §3, §4, §5, §6

[6] = system: soybean; assay: Test Example 3: soil treatment, effect on crop; d: soybean; conditions: soil treatment, treatment dosage 315 g/ha
Source text: as §3, §4, §5, §6

[7] = system: green foxtail; assay: Test Example 3: weedkilling efficacy through soil treatment; E: green foxtail; conditions: soil treatment, treatment dosage 315 g/ha
Source text: as §3, §4, §5, §6

[8] = system: bulrush; assay: Test Example 1: weedkilling efficacy, preemergent weed treatment in the submerged state; B: bulrush
How it was run: as §1

[9] = system: corn; assay: Test Example 3: soil treatment, effect on crop; c: corn; conditions: soil treatment, treatment dosage 315 g/ha
Source text: as §3, §4, §5, §6

[10] = system: oval-leafed pondweed; assay: Test Example 2: weedkilling efficacy, growth period weed treatment in the submerged state; C: oval-leafed pondweed
How it was run: as §2

[11] = system: wild oat; assay: Test Example 3: weedkilling efficacy through soil treatment; G: wild oat; conditions: soil treatment, treatment dosage 315 g/ha
Source text: as §3, §4, §5, §6

[12] = system: barnyard grass; assay: Test Example 1: weedkilling efficacy, preemergent weed treatment in the submerged state; A: barnyard grass
How it was run: as §1

[13] = system: transplanted rice; assay: Test Example 1: preemergent weed treatment in the submerged state, effect on crop; a: transplanted rice
How it was run: as §1

[14] = system: Italian ryegrass; assay: Test Example 3: weedkilling efficacy through soil treatment; I: Italian ryegrass; conditions: soil treatment, treatment dosage 315 g/ha
Source text: as §3, §4, §5, §6

[15] = system: wheat; assay: Test Example 3: soil treatment, effect on crop; e: wheat; conditions: soil treatment, treatment dosage 315 g/ha
Source text: as §3, §4, §5, §6

[16] = system: redroot pigweed; assay: Test Example 3: weedkilling efficacy through soil treatment; L: redroot pigweed; conditions: soil treatment, treatment dosage 315 g/ha
Source text: as §3, §4, §5, §6

[17] = system: directly sown rice; assay: Test Example 3: soil treatment, effect on crop; b: directly sown rice; conditions: soil treatment, treatment dosage 315 g/ha
Source text: as §3, §4, §5, §6

[18] = system: chickweed; assay: Test Example 3: weedkilling efficacy through soil treatment; N: chickweed; conditions: soil treatment, treatment dosage 315 g/ha
Source text: as §3, §4, §5, §6

[19] = system: fig-leafed goosefoot; assay: Test Example 3: weedkilling efficacy through soil treatment; M: fig-leafed goosefoot; conditions: soil treatment, treatment dosage 315 g/ha
Source text: as §3, §4, §5, §6

[20] = system: barnyard grass; assay: Test Example 2: weedkilling efficacy, growth period weed treatment in the submerged state; A: barnyard grass
How it was run: as §2

[21] = system: beet; assay: Test Example 3: soil treatment, effect on crop; f: beet; conditions: soil treatment, treatment dosage 315 g/ha
Source text: as §3, §4, §5, §6

| Compound | C: oval-leafed pondweed, weed kill grade ([1]; treatment dosage 252 g/ha) | B (bulrush) weedkilling efficacy grade ([2]; treatment dosage 252 g/ha) | D: crabgrass, weedkilling efficacy grade [3] | H: black-grass, weedkilling efficacy grade [4] | K: Indian mallow, weedkilling efficacy grade [5] | d: soybean, effect on crop grade [6] | E: green foxtail, weedkilling efficacy grade [7] | B: bulrush, weed kill grade ([8]; treatment dosage 252 g/ha) | c: corn, effect on crop grade [9] | C (oval-leafed pondweed) weedkilling efficacy grade ([10]; treatment dosage 252 g/ha) | G: wild oat, weedkilling efficacy grade [11] | A: barnyard grass, weed kill grade ([12]; treatment dosage 252 g/ha) | a: transplanted rice, effect on crop grade ([13]; treatment dosage 252 g/ha) | I: Italian ryegrass, weedkilling efficacy grade [14] | e: wheat, effect on crop grade [15] | L: redroot pigweed, weedkilling efficacy grade [16] | N: chickweed, weedkilling efficacy grade [18] | M: fig-leafed goosefoot, weedkilling efficacy grade [19] | A (barnyard grass) weedkilling efficacy grade ([20]; treatment dosage 252 g/ha) | C: oval-leafed pondweed, weed kill grade ([1]; treatment dosage 320 g/ha) | other results |
| --- | --- | --- | --- | --- | --- | --- | --- | --- | --- | --- | --- | --- | --- | --- | --- | --- | --- | --- | --- | --- | --- |
| CC(C)(C(=O)Nc1cc(Cl)cc(Br)n1)N1COCN(c2ccccc2)C1=O [A-2-24] | 5 (weed kill ratio 90% or more, (practically complete withering)) | 5 (weed kill ratio 90% or more, (practically complete withering)) | 5 (weed kill ratio 90% or more, (practically complete withering)) | 5 (weed kill ratio 90% or more, (practically complete withering)) | 4 (weed kill ratio 70% or more, less than 90%) | 1 (weed kill ratio 5% or more, less than 20%) | 5 (weed kill ratio 90% or more, (practically complete withering)) | 5 (weed kill ratio 90% or more, (practically complete withering)) | 0 (weed kill ratio 5% or less (practically no effect)) | 5 (weed kill ratio 90% or more, (practically complete withering)) | 5 (weed kill ratio 90% or more, (practically complete withering)) | 5 (weed kill ratio 90% or more, (practically complete withering)) | 0 (weed kill ratio 5% or less (practically no effect)) | 5 (weed kill ratio 90% or more, (practically complete withering)) | 4 (weed kill ratio 70% or more, less than 90%) | 4 (weed kill ratio 70% or more, less than 90%) | 4 (weed kill ratio 70% or more, less than 90%) | 4 (weed kill ratio 70% or more, less than 90%) | 5 (weed kill ratio 90% or more, (practically complete withering)) |  | b: directly sown rice, effect on crop grade [17]: 4 (weed kill ratio 70% or more, less than 90%) |
| CC(C)(C(=O)Nc1cccc(Cl)n1)N1COCN(c2ccccc2)C1=O [A-2-07] | 5 (weed kill ratio 90% or more, (practically complete withering)) | 5 (weed kill ratio 90% or more, (practically complete withering)) | 5 (weed kill ratio 90% or more, (practically complete withering)) | 5 (weed kill ratio 90% or more, (practically complete withering)) | 0 (weed kill ratio 5% or less (practically no effect)) | 4 (weed kill ratio 70% or more, less than 90%) | 5 (weed kill ratio 90% or more, (practically complete withering)) | 5 (weed kill ratio 90% or more, (practically complete withering)) | 4 (weed kill ratio 70% or more, less than 90%) | 5 (weed kill ratio 90% or more, (practically complete withering)) | 5 (weed kill ratio 90% or more, (practically complete withering)) | 5 (weed kill ratio 90% or more, (practically complete withering)) | 4 (weed kill ratio 70% or more, less than 90%) | 5 (weed kill ratio 90% or more, (practically complete withering)) | 3 (weed kill ratio 40% or more, less than 70%) | 5 (weed kill ratio 90% or more, (practically complete withering)) | 4 (weed kill ratio 70% or more, less than 90%) | 4 (weed kill ratio 70% or more, less than 90%) | 4 (weed kill ratio 70% or more, less than 90%) |  | f: beet, effect on crop grade [21]: 5 (weed kill ratio 90% or more, (practically complete withering)) |
| CC(C)(C(=O)Nc1cc(Cl)cc(Cl)n1)N1COCN(c2ccccc2Cl)C1=O [A-6-06] | 5 (weed kill ratio 90% or more, (practically complete withering)) | 5 (weed kill ratio 90% or more, (practically complete withering)) |  |  |  |  |  | 5 (weed kill ratio 90% or more, (practically complete withering)) |  | 5 (weed kill ratio 90% or more, (practically complete withering)) |  | 5 (weed kill ratio 90% or more, (practically complete withering)) | 2 (weed kill ratio 20% or more, less than 40%) |  |  |  |  |  | 5 (weed kill ratio 90% or more, (practically complete withering)) |  |  |
| CC(C)(C(=O)Nc1ccc(C(F)(F)F)cn1)N1COCN(c2ccccc2)C1=O [A-2-43] |  |  |  |  |  |  |  |  |  |  |  |  |  |  |  |  |  |  |  | 5 (weed kill ratio 90% or more, (practically complete withering)) | B (bulrush) weedkilling efficacy grade ([2]; treatment dosage 320 g/ha): 4 (weed kill ratio 70% or more, less than 90%); B: bulrush, weed kill grade ([8]; treatment dosage 320 g/ha): 5 (weed kill ratio 90% or more, (practically complete withering)); C (oval-leafed pondweed) weedkilling efficacy grade ([10]; treatment dosage 320 g/ha): 2 (weed kill ratio 20% or more, less than 40%); A: barnyard grass, weed kill grade ([12]; treatment dosage 320 g/ha): 3 (weed kill ratio 40% or more, less than 70%); a: transplanted rice, effect on crop grade ([13]; treatment dosage 320 g/ha): 0 (weed kill ratio 5% or less (practically no effect)); A (barnyard grass) weedkilling efficacy grade ([20]; treatment dosage 320 g/ha): 2 (weed kill ratio 20% or more, less than 40%) |
| CC(C)(C(=O)Nc1cc(Cl)cc(Cl)n1)N1COCN(c2ccccc2)C1=S [A-2-18] |  |  |  |  |  |  |  |  |  |  |  |  |  |  |  |  |  |  |  | 5 (weed kill ratio 90% or more, (practically complete withering)) | B (bulrush) weedkilling efficacy grade ([2]; treatment dosage 320 g/ha): 5 (weed kill ratio 90% or more, (practically complete withering)); B: bulrush, weed kill grade ([8]; treatment dosage 320 g/ha): 5 (weed kill ratio 90% or more, (practically complete withering)); C (oval-leafed pondweed) weedkilling efficacy grade ([10]; treatment dosage 320 g/ha): 5 (weed kill ratio 90% or more, (practically complete withering)); A: barnyard grass, weed kill grade ([12]; treatment dosage 320 g/ha): 5 (weed kill ratio 90% or more, (practically complete withering)); a: transplanted rice, effect on crop grade ([13]; treatment dosage 320 g/ha): 0 (weed kill ratio 5% or less (practically no effect)); A (barnyard grass) weedkilling efficacy grade ([20]; treatment dosage 320 g/ha): 5 (weed kill ratio 90% or more, (practically complete withering)) |
| CC(C)(C(=O)Nc1cc(C2CC2)ccn1)N1COCN(c2ccccc2)C1=O [A-2-45] | 5 (weed kill ratio 90% or more, (practically complete withering)) | 4 (weed kill ratio 70% or more, less than 90%) |  |  |  |  |  | 5 (weed kill ratio 90% or more, (practically complete withering)) |  | 3 (weed kill ratio 40% or more, less than 70%) |  | 5 (weed kill ratio 90% or more, (practically complete withering)) | 0 (weed kill ratio 5% or less (practically no effect)) |  |  |  |  |  | 4 (weed kill ratio 70% or more, less than 90%) |  |  |
